According to patent US9556162B2, “Compound for the treatment of hepatitis C” (Bristol-Myers Squibb Company, priority 2013, dated 2017):
pEC50, pIC50: −log10 of the molar value.

Columns and labels:
[1] = test system: genotype 1b (Con-1) HCV replicon; assay: HCV replicon luciferase assay; assay type: cell-based; conditions: Hepatitis C virus, Huh-7, 72 h
Method: The cell lines used to evaluate compounds consist of a human hepatocyte derived cell line (Huh-7) that constitutively expresses a genotype 1b (Con-1) HCV replicon or a genotype 1b (Con-1) HCV replicon with an asparagine replacing the cysteine at amino acid 316, or a genotype 2a (JFH-1) replicon, containing a Renilla luciferase reporter gene. These cells were maintained in Dulbecco's modified Eagle medium (DMEM) containing 10% FBS, 100 U/mL penicillin/streptomycin and 1.0 mg/mL G418.
To evaluate compound efficacy, titrated compounds were transferred to sterile 384-well tissue culture treated plates, and the plates were seeded with HCV replicon cells (50 μL at a density of 2.4×10^3 cells/well) in DMEM containing 4% FBS (final DMSO concentration at 0.5%). After 3 days incubation at 37 C, cells were analyzed for Renilla Luciferase activity using the EnduRen substrate (Promega cat #E6485) according to the manufacturer's directions. […] The plates were incubated for at least 1 h at 37° C. then read on a Viewlux Imager (PerkinElmer) using a luminescence program. […]
To assess cytotoxicity of compounds, Cell Titer-Blue (Promega) was added to the EnduRen-containing plates and incubated for at least 4 h at 37° C. The fluorescence signal from each well was read using a Viewlux Imager. All CC50 values were calculated using the four-parameter logistic formula.

[2] = target: T1, NS5B enzyme, HCV genotype 1b (Con1) (Hepatitis C virus genotype 1b, UniProt Q9WMX2); assay: HCV NS5B RdRp enzyme assay; assay type: biochemical; conditions: 1b NS5B enzyme, 24 h preincubation, [33P]-GTP incorporation
T1 construct: Each untagged protein was expressed with an 18 amino acid C-terminal truncation to enhance the solubility; made in house; host or cells: E. coli BL21(DE3), pET21a vector
T1 sequence (Q9WMX2 2420-2992): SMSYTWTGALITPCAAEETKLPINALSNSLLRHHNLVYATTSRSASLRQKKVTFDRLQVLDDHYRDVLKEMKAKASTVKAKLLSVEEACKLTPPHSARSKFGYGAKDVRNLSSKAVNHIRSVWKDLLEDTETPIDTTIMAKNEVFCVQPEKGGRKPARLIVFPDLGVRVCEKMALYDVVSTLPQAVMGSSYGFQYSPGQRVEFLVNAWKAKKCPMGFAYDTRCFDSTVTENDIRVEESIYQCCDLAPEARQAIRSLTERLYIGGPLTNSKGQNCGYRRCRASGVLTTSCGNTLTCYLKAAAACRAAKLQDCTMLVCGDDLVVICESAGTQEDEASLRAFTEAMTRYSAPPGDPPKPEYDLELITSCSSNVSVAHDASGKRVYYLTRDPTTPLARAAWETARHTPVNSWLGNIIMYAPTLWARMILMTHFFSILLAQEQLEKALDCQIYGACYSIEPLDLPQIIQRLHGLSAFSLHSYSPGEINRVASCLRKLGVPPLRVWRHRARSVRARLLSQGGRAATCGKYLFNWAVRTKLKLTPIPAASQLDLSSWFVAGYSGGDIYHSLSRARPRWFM
Method: The cDNA encoding NS5B proteins of HCV genotype 1b (Con1), a genotype 1b variant with amino acid 316 mutated from cysteine to asparagine, and genotype 2a (JFH-1), were cloned into the pET21a expression vector. Each untagged protein was expressed with an 18 amino acid C-terminal truncation to enhance the solubility. The E. coli competent cell line BL21(DE3) was used for expression of the protein. Cultures were grown at 37° C. for ˜4 hours until the cultures reached an optical density of 2.0 at 600 nm. The cultures were cooled to 20° C. and induced with 1 mM IPTG. Fresh ampicillin was added to a final concentration of 50 μg/mL and the cells were grown overnight at 20° C.
Cell pellets (3 L) were lysed for purification to yield 15-24 mgs of purified NS5B. […]
HCV NS5B RdRp enzyme assay. […] The newly synthesized RNA product was precipitated by 10% TCA and quantified on the Packard Top Count NXT. IC50 values for compounds were determined using seven different [I]. IC50 values were calculated from the inhibition using the four-parameter logistic formula y=A+((B−A)/(1+((C/x)^D))), where A and B denote minimal and maximal % inhibition, respectively, C is the IC50, D is hill slope and x represents compound concentration.

HCV = conditions: cited from earlier work

CC[C@@H](C)c1cc2oc(-c3ccc(F)cc3)c(C(=O)NC)c2cc1-c1cccc(C(=O)NC(C)(C)c2ncon2)c1 (single isomer, unassigned) [Enantiomer 2]
pEC50 [1]: 8.26 | pIC50 [2]: 8.64

CNC(=O)c1c(-c2ccc(F)cc2)oc2cc(N(CCO)S(C)(=O)=O)c(C3CC3)cc12 [HCV-796]
toxicity during extended dosing of the combination regimens (HCV; patients, combined with interferon and ribavirin): hepatic toxicity | HCV RNA levels in patients (HCV; single agent: transient decrease then rebound during dosing): reduce HCV RNA levels
